Results taken from ChEMBL document CHEMBL5584354, “Impact of Conjugation of the Reactive Oxygen Species (ROS)-Generating Catalytic Moiety with Membrane-Active Antimicrobial Peptoids: Promoting Multitarget Mechanism and Enhancing Selectivity” (J Med Chem, 2024).
In brackets after ≈: the same amount, converted by molar mass. Activity calls are given as the source filed them. No cut-off for these calls is given here. Non-standard residues stand in square brackets, D forms with d. Residues, ends and D or L forms follow the SMILES beside them. Gly(N(CH2)2(3-indolyl)) = O=C(O)CNCCc1c[nH]c2ccccc12; Nspe = C[C@H](NCC(=O)O)c1ccccc1; Nlys = NCCCCNCC(=O)O

Legend:
Escherichia coli [1] = assay: Induction of lipid peroxidation in Escherichia coli ATCC 25922 at 12.5 uM incubated for 1 hrs by BODIPY 581/591 C11 dye based flow cytometry analysis; format: functional, organism-based
Escherichia coli [2] = assay: (§1) Antibacterial activity against Escherichia coli K1 infected in female ICR mouse model of septic shock assessed as reduction in bacterial load in lung at 5 mg/kg, ip pretreated for 1 hr followed by bacteria addition and further treated with 3 doses of compound every 4 hrs; format: functional, organism-based; conditions: time 9.0 hrs
Escherichia coli [3] = assay: Antibacterial activity against Escherichia coli K1 infected in female ICR mouse model of septic shock assessed as reduction in bacterial load in kidney at 5 mg/kg, ip pretreated for 1 hr followed by bacteria addition and further treated with 3 doses of compound every 4 hrs; format: functional, organism-based; conditions: time 9.0 hrs
MRC5 = assay: Cytotoxicity against human MRC5 cells assessed as cell killing incubated for 24 hrs by MTS assay; format: toxicity, cell-based; conditions: mrc5, 24 h
[4] = Cytotoxicity against mouse RAW264.7 cells assessed as cell viability at 20 uM incubated for 24 hrs by […] relative to control; format: toxicity, cell-based; conditions: read-out: Activity
RAW264.7 [5] = assay: Antiinflammatory activity in LPS-stimulated mouse RAW264.7 cells assessed as reduction in TNFalpha production at 10 uM incubated for 16 hrs by ELISA relative to control; format: functional; set-up: scale not given: the % may be the effect or the level left
[6] = Selectivity index, ratio of HC10 for hemolytic activity in male Sprague-Dawley rat erythrocytes to MIC for antibacterial activity against Escherichia coli ATCC 25922; format: toxicity; conditions: read-out: Selectivity Index
Streptococcus pneumoniae = assay: Antibacterial activity against catalase-negative Streptococcus pneumoniae KCMM42691 assessed as inhibition of bacterial growth incubated for 24 hrs by broth dilution method; format: functional
Escherichia coli [7] = assay: as §1, with “increase” for “reduction”, “animal survival” for “bacterial load in lung”, “hrs and measured every hour for 36 hrs and every 6 hrs for 96 hrs” for “hrs”; format: functional
[8] = Toxicity in female ICR mouse assessed as dilatation of renal vein in kidney at 5 mg/kg, ip administered four doses for 12 hrs and measured 24 hrs post last dose by H and E staining based light microscopic analysis; format: organism-based; conditions: in vivo, 36 h
Escherichia coli [9] = assay: Antibacterial activity against Escherichia coli ATCC 25922 assessed as inhibition of bacterial growth incubated for 24 hrs by broth dilution method; format: functional
HEK293 [10] = assay: Cytotoxicity against HEK293 cells assessed as reduction in cell viability at 3.1 to 25 uM incubated for 24 hrs by WST-8 assay; format: toxicity, cell-based; conditions: human, hek293, 24 h, dose 3.1-25 µM
Staphylococcus aureus = assay: Antibacterial activity against Staphylococcus aureus ATCC 25923 assessed as inhibition of bacterial growth incubated for 24 hrs by broth dilution method; format: functional
Escherichia coli [11] = assay: Antibacterial activity against Escherichia coli K1 infected in female ICR mouse model of septic shock assessed as reduction in BUN level in serum at 5 mg/kg, ip pretreated for 1 hr followed by bacteria addition and further treated with 3 doses of compound every 4 hrs relative to control; format: functional; set-up: scale not given: the % may be the effect or the level left; conditions: time 9 hrs
[12] = Hemolytic activity in male Sprague-Dawley rat erythrocytes assessed as concentration required for 50% hemolysis incubated for 1 hr by absorbance based method; format: toxicity, cell-based, Erythrocyte
HaCaT = assay: Cytotoxicity against human HaCaT cells assessed as cell killing incubated for 24 hrs by MTS assay; format: toxicity, cell-based
[13] = Toxicity in female ICR mouse assessed as effect on blood urea nitrogen level at 5 mg/kg, ip administered four doses for 12 hrs and measured 24 hrs post last dose; format: organism-based; conditions: in vivo, 36 h
Escherichia coli [14] = assay: Induction of lipid peroxidation in Escherichia coli ATCC 25922 assessed as increase in MDA level at 10 uM incubated for 2 hrs by TBARS assay; format: functional, organism-based
Escherichia coli [15] = assay: Antibacterial activity against Escherichia coli K1 infected in female ICR mouse model of septic shock assessed as reduction in IL-6 level in serum at 5 mg/kg, ip pretreated for 1 hr followed by bacteria addition and further treated with 3 doses of compound every 4 hrs by ELISA relative to control; format: functional; set-up: scale not given: the % may be the effect or the level left; conditions: time 9 hrs
[16] = Hemolytic activity in male Sprague-Dawley rat erythrocytes at 50 uM incubated for 1 hr by absorbance based method relative to control; format: toxicity, cell-based, Erythrocyte; conditions: read-out: Activity
[17] = Toxicity in female ICR mouse assessed as lymphocyte infiltration in kidney at 5 mg/kg, ip administered four doses for 12 hrs and measured 24 hrs post last dose by H and E staining based light microscopic analysis; format: organism-based; conditions: in vivo, 36 h
HEK293 [18] = assay: Cytotoxicity against HEK293 cells assessed as cell killing incubated for 24 hrs by MTS assay; format: toxicity, cell-based; conditions: human, hek293, 24 h
[19] = Hemolytic activity in male Sprague-Dawley rat erythrocytes at 100 uM incubated for 1 hr by absorbance based method relative to control; format: toxicity, cell-based, Erythrocyte; conditions: read-out: Activity
Escherichia coli [20] = assay: Antibacterial activity against Escherichia coli K1 infected in female ICR mouse model of septic shock assessed as reduction in ALT level in serum at 5 mg/kg, ip pretreated for 1 hr followed by bacteria addition and further treated with 3 doses of compound every 4 hrs relative to control; format: functional; set-up: scale not given: the % may be the effect or the level left; conditions: time 9 hrs
Escherichia coli [21] = assay: Antibacterial activity against Escherichia coli K1 infected in female ICR mouse model of septic shock assessed as reduction in endotoxin level at 5 mg/kg, ip pretreated for 1 hr followed by bacteria addition and further treated with 3 doses of compound every 4 hrs relative to control; format: functional; set-up: scale not given: the % may be the effect or the level left; conditions: time 9 hrs
[22] = Toxicity in female ICR mouse assessed as effect on AST level in serum at 5 mg/kg, ip administered four doses for 12 hrs and measured 24 hrs post last dose; format: organism-based; conditions: in vivo, 36 h
L929 = assay: Cytotoxicity against mouse L929 cells assessed as reduction in cell viability at 3.1 to 25 uM incubated for 24 hrs by WST-8 assay; format: toxicity, cell-based; conditions: l929, 24 h, dose 3.1-25 µM
[23] = Hemolytic activity in male Sprague-Dawley rat erythrocytes at 25 uM incubated for 1 hr by absorbance based method relative to control; format: toxicity, cell-based, Erythrocyte; conditions: read-out: Activity
[24] = Toxicity in female ICR mouse assessed as effect on creatinine level in serum at 5 mg/kg, ip administered four doses for 12 hrs and measured 24 hrs post last dose; format: organism-based; conditions: in vivo, 36 h
Acinetobacter baumannii = assay: Antibacterial activity against carbapenem-resistant Acinetobacter baumannii NMS1707 harboring extended-spectrum beta-lactamase assessed as inhibition of bacterial growth incubated for 24 hrs by broth dilution method; format: functional
Escherichia coli [25] = assay: Induction of lipid peroxidation in Escherichia coli ATCC 25922 assessed as increase in green fluorescence at 12.5 uM incubated for 1 hrs by BODIPY 581/591 C11 dye based confocal microscopic analysis; format: functional, organism-based
Escherichia coli [26] = assay: as §1, with “infiltrated […]” for “bacterial load”, “hrs by H and E staining based light microscopic analysis” for “hrs”; format: functional, organism-based; conditions: time 9.0 hrs
Escherichia coli [27] = assay: as §1, with “alveolar hemorrhage” for “bacterial load”, “hrs by H and E staining based light microscopic analysis” for “hrs”; format: functional, organism-based; conditions: time 9.0 hrs
RAW264.7 [28] = assay: Antiinflammatory activity in LPS-stimulated mouse RAW264.7 cells assessed as reduction in nitrite production at 10 uM incubated for 16 hrs by ELISA relative to control; format: functional; set-up: scale not given: the % may be the effect or the level left
Escherichia coli [29] = assay: as §1, with “in” for “in bacterial load in”, “lung edema” for “lung”, “hrs by H and E staining based light microscopic analysis” for “hrs”; format: functional, organism-based; conditions: time 9.0 hrs

With `C[C@@H](c1ccccc1)N(CC(=O)N(CCCCN)CC(=O)N(CCc1c[nH]c2ccccc12)CC(=O)N(CCc1c[nH]c2ccccc12)CC(N)=O)C(=O)CN(CCCCN)C(=O)CN(CCCCN)C(=O)CN(C(=O)CN(C(=O)CN(CCCCN)C(=O)CN(C(=O)CN(C(=O)CN(CCCCN)C(=O)[C@H](Cc1c[nH]cn1)NC(=O)CNC(=O)CN)[C@@H](C)c1ccccc1)[C@@H](C)c1ccccc1)[C@@H](C)c1ccccc1)[C@@H](C)c1ccccc1` (H-GGH[Nlys][Nspe][Nspe][Nlys][Nspe][Nspe][Nlys][Nlys][Nspe][Nlys][Gly(N(CH2)2(3-indolyl))][Gly(N(CH2)2(3-indolyl))]-NH2) the Activity (Escherichia coli [1]) was “Active”, the Activity (Escherichia coli [2]) was “Active” and the Activity (Escherichia coli [3]) was “Active”. For the same compound, the LC50 (MRC5) was 187 µM, the viability at 24 h, 20 µM [4] was 74.1% and the Activity (RAW264.7 [5]) was 32.5%. For the same compound, the selectivity ratio [6] was over 15.8, the MBC (Streptococcus pneumoniae) was 12.5 µM (≈ 26.4 µg/mL) and the MIC (Streptococcus pneumoniae) was 6.3 µM (≈ 13.3 µg/mL). The survival at 5 mg/kg (Escherichia coli [7]) was 60%, the Activity [8] was “Non-Toxic” and the MIC (Escherichia coli [9]) was 6.3 µM (≈ 13.3 µg/mL). The Activity (HEK293 [10]) was “Non-Toxic”, the MIC (Staphylococcus aureus) was 12.5 µM (≈ 26.4 µg/mL) and the Activity (Escherichia coli [11]) was 40.3%. For the same compound, the HC50 at 1 h [12] was over 100 µM, the LC50 (HaCaT) was 110 µM and the Activity [13] was “Non-Toxic”. For the same compound, the Activity (Escherichia coli [14]) was “Active”, the Activity (Escherichia coli [15]) was 42.8% and the hemolysis at 1 h, 50 µM [16] was 4.83%. For the same compound, the Activity [17] was “Non-Toxic”, the LC50 (HEK293 [18]) was 39.5 µM and the hemolysis at 1 h, 100 µM [19] was 5.57%. For the same compound, the Activity (Escherichia coli [20]) was 51.1%, the Activity (Escherichia coli [21]) was 44.3% and the Activity [22] was “Non-Toxic”. For the same compound, the Activity (L929) was “Non-Toxic”, the hemolysis at 1 h, 25 µM [23] was 3.13% and the Activity [24] was “Non-Toxic”. For the same compound, the MIC (Acinetobacter baumannii) was 3.1 µM (≈ 6.56 µg/mL), the Activity (Escherichia coli [25]) was “Active” and the Activity (Escherichia coli [26]) was “Active”. For the same compound, the Activity (Escherichia coli [27]) was “Active”, the Activity (RAW264.7 [28]) was 80.9% and the Activity (Escherichia coli [29]) was “Active”.
